Experimental data taken from patent US20260042764A1, “COMPOSITIONS AND METHODS FOR INHIBITION OF KRAS” (TheRas, Inc., priority 2022, published 2026).
Like-named read-outs stand apart in the source and are kept apart here.

Experiments:
HPAC cells (KRAS G12D) = assay: Cell-based pERK HTRF assay in HPAC cells (Biological Example 5)
Protocol: (§1) Biological Example 5: Cell-based PERK HTRF assay in AsPC-1, SW1900, HPAC, Capan-2, RKN, H358, HCT116, KP-2, H1573, A549, MKN1, and HT1080 cells
(§2) The inhibition of ERK phosphorylation, as measured using the HTRF Advanced Phospho-ERK 1/2 (Thr202/Tyr204) Detection Assay kit (Perkin Elmer), was used to determine the effectiveness of test compounds in disrupting KRAS-driven protein/effector signaling in cells.
(§3) On day 1, cells were seeded into 96-well plates at 2.5×10^4 cells/well in 100 μL of complete growth media supplemented with 10% fetal bovine serum (FBS) and incubated at 37° C., in the presence of 5% CO2.
(§4) On day 2, cells were treated with compounds diluted in DMSO at 0.25% final DMSO concentration. Compounds were dosed in a 9-point concentration curve with three-fold dilution between concentrations. Cells were incubated in the presence of compound for two hours at 37° C. Following this treatment period, cells were harvested by aspirating the media, adding 40 μL of kit-supplied 1x lysis buffer per well, and shaking for 30 minutes at 250 rpm at room temperature.
(§5) Following cell lysis, samples were homogenized by pipetting up and down twenty times and 16 μL of cell lysate per well was transferred from the 96-well cell culture plate to two wells of a 384-well detection plate. A complete detection buffer was prepared by diluting D2 and Eu Cryptate antibodies 1:20 in kit-provided detection solution, 4 μL of complete detection buffer was then added to each well with lysate. Plates were incubated with gentle rocking for 24 hours at 4° C.
(§6) Following this incubation period, plates were centrifuged at 500×g for one minute and analyzed on a CLARIOstar plate reader. Data was imported into Microsoft Excel and the signal from the 665 nm channel was divided by the signal from the 620 nm channel. % pERK was calculated as: […]
(§7) Data was imported to the Prism software package (Graphpad) and EC50 values were calculated using the log (inhibitor) vs, response—variable slopc (Four parameters) model.

HCT116 cells (KRAS G13D) [1] = assay: Cell-based pERK HTRF assay in HCT116 cells (Biological Example 5)
Protocol: as §1, §2, §3, §4, §5, §6, §7

H1573 cells (KRAS G12A) [2] = assay: Cell-based pERK HTRF assay in H1573 cells (Biological Example 5)
Protocol: as §1, §2, §3, §4, §5, §6, §7

A549 cells (KRAS G12S) [3] = assay: Cell-based pERK HTRF assay in A549 cells (Biological Example 5)
Protocol: as §1, §2, §3, §4, §5, §6, §7

HT1080 cells (NRAS) [4] = assay: Cell-based pERK HTRF assay in HT1080 cells (Biological Example 5)
Protocol: as §1, §2, §3, §4, §5, §6, §7

HCT116 cells (KRAS G13D) [5] = assay: 3D Cell viability assay in HCT116 cells (Biological Example 6); assay type: cell-based; conditions: HCT116 (KRAS G13D) spheroids, 72 hours
Protocol: (§8) Biological Example 6: 3D Cell viability assay in AsPC-1, SW1900, HPAC, Capan-2, RKN, H358, HCT116, KP-2, H1573, A549, MKN1, and HT1080 cells
(§9) The inhibition of cellular viability as a result of test compound treatment in a spheroid assay was measured using the CellTiter-Glow 3D Cell Viability Assay (Promega).
(§10) On Day 1, 1000 cells per well were seeded in 150 μL of complete growth media supplemented with 10% fetal bovine serum (FBS) and incubated at 37° C., in the presence of 5% CO2 in 96-well ultra-low attachment microplates (Corning) for 48 hours undisturbed to allow spheroids to form.
(§11) Following spheroid formation, cells were treated with compounds diluted in DMSO at 0.25% final DMSO concentration. Compounds were dosed in a 9-point concentration curve with three-fold dilution between concentrations. Cells were incubated in the presence of compound for 72 hours at 37° C., in the presence of 5% CO2.
(§12) Following this incubation period, the kit-provided CTG reagent was allowed to equilibrate for 30 minutes at room temperature, 150 μL of equilibrated CTG reagent was added to each well, and the plate was sealed before shaking at 250 rpm for 10 minutes at room temperature to lyse the cells, 150 μL of lysate per well was transferred to a 96-well plate and luminescence was read on a CLARIOstar plate reader.
(§13) Data was imported into the Prism software package (Graphpad) and EC50 values were calculated using the log (inhibitor) vs, response—variable slope (Four parameters) model.

H1573 cells (KRAS G12A) [6] = assay: 3D Cell viability assay in H1573 cells (Biological Example 6); assay type: cell-based; conditions: H1573 (KRAS G12A) spheroids, 72 hours
Protocol: as §8, §9, §10, §11, §12, §13

A549 cells (KRAS G12S) [7] = assay: 3D Cell viability assay in A549 cells (Biological Example 6); assay type: cell-based; conditions: A549 (KRAS G12S) spheroids, 72 hours
Protocol: as §8, §9, §10, §11, §12, §13

HT1080 cells (NRAS) [8] = assay: 3D Cell viability assay in HT1080 cells (Biological Example 6); assay type: cell-based; conditions: HT1080 (NRAS) spheroids, 72 hours
Protocol: as §8, §9, §10, §11, §12, §13

AsPC-1 cells (KRAS G12D) = assay: Cell-based pERK HTRF assay in AsPC-1 cells (Biological Example 5); conditions: Homo sapiens, ASPC1, AsPC-1 (KRAS G12D) cells
Protocol: as §1, §2, §3, §4, §5, §6, §7

KP-2 cells (KRAS G12R) [9] = assay: Cell-based pERK HTRF assay in KP-2 cells (Biological Example 5); conditions: KP-2 (KRAS G12R) cells
Protocol: as §1, §2, §3, §4, §5, §6, §7

KP-2 cells (KRAS G12R) [10] = assay: 3D Cell viability assay in KP-2 cells (Biological Example 6); assay type: cell-based; conditions: KP-2 (KRAS G12R) spheroids, 72 hours
Protocol: as §8, §9, §10, §11, §12, §13

IC50 (HPAC cells (KRAS G12D); Homo sapiens, HPAC) [nM]	IC50 (HCT116 cells (KRAS G13D) [1]; Homo sapiens, HCT-116) [nM]	IC50 (H1573 cells (KRAS G12A) [2]; Homo sapiens, NCI-H1573) [nM]	IC50 (A549 cells (KRAS G12S) [3]; Homo sapiens) [nM]	IC50 (HT1080 cells (NRAS) [4]; Homo sapiens, HT-1080) [nM]	IC50 (HCT116 cells (KRAS G13D) [5]; Homo sapiens, HCT-116) [nM]	IC50 (H1573 cells (KRAS G12A) [6]; Homo sapiens, NCI-H1573) [nM]	IC50 (A549 cells (KRAS G12S) [7]; Homo sapiens) [nM]	IC50 (HT1080 cells (NRAS) [8]; Homo sapiens, HT-1080) [nM]	IC50 (AsPC-1 cells (KRAS G12D)) [nM]	IC50 (KP-2 cells (KRAS G12R) [9]) [nM]	SMILES	IC50 (KP-2 cells (KRAS G12R) [10]) [nM]	also measured
≤ 100	≤ 100	≤ 100	≤ 100	> 1000	100 to 1000	≤ 100	≤ 100	> 1000	–	–	CCN(c1nc(OC[C@@]23CCCN2C[C@H](F)C3)nc2c(F)c(-c3ccc(F)c4sc(N)c(C#N)c34)c(Cl)cc12)[C@@H]1CCN(C(C)=O)[C@@H]1C [Compound 323]	–	–
100 to 1000	≤ 100	≤ 100	≤ 100	> 1000	100 to 1000	≤ 100	≤ 100	> 1000	–	–	N#Cc1c(N)sc2c(F)ccc(-c3c(C(F)(F)F)cc4c(N5CCC[C@@H](O)C5)nc(OC[C@@]56CCCN5C[C@H](F)C6)nc4c3F)c12 [Compound 234]	–	–
≤ 100	≤ 100	≤ 100	100 to 1000	> 1000	100 to 1000	≤ 100	≤ 100	> 1000	–	–	CCN(c1nc(OC[C@@]23CCCN2C[C@H](F)C3)nc2c(F)c(-c3ccc(F)c4sc(N)c(C#N)c34)c(Cl)cc12)[C@@H]1CCN(C(=O)C2CC2)[C@@H]1C [Compound 337]	–	–
≤ 100	≤ 100	≤ 100	≤ 100	> 1000	100 to 1000	≤ 100	≤ 100	> 1000	100 to 1000	≤ 100	CCN(c1nc(OC[C@@]23CCCN2C[C@H](F)C3)nc2c(F)c(-c3ccc(F)c4sc(N)c(C#N)c34)c(C(F)(F)F)cc12)[C@H]1CCN(C(C)=O)C1 [Compound 262]	100 to 1000	–
≤ 100	≤ 100	100 to 1000	100 to 1000	> 1000	> 1000	> 1000	100 to 1000	> 1000	> 1000	100 to 1000	C[C@@H]1[C@H](N(C)c2nc(OC[C@@]34CCCN3C[C@H](F)C4)nc3c(F)c(-c4ccc(F)c5sc(N)c(C#N)c45)c(C(F)(F)F)cc23)CC(=O)N1C [Compound 440]	≤ 100	–
≤ 100	≤ 100	≤ 100	≤ 100	> 1000	≤ 100	≤ 100	≤ 100	> 1000	–	≤ 100	CC(=O)N1CC[C@@H](N(C)c2nc(OC[C@@]34CCCN3C[C@H](F)C4)nc3c(F)c(-c4ccc(F)c5sc(N)c(C#N)c45)c(C(F)(F)F)cc23)[C@H]1C (single isomer, unassigned) [Compound 193]	–	–
–	–	–	–	–	–	–	–	–	–	–	CN(c1nc(OC[C@@]23CCCN2C[C@H](F)C3)nc2c(F)c(-c3ccc(F)c4sc(N)c(C#N)c34)c(C(F)(F)F)cc12)[C@H]1C[C@@H](O)C1 [Compound 19, 2-amino-7-fluoro-4-((S)-8-fluoro-2-(((2R,7aS)-2-fluorotetrahydro-1H-pyrrolizin-7a(5H)-yl)methoxy)-4-(((1s,3R)-3-hydroxycyclobutyl)(methyl)amino)-6-(trifluoromethyl)quinazolin-7-yl)benzo[b]thiophene-3-carbonitrile]	–	IC50 (HPAC cells (KRAS G12D)): ≤ 100 nM; IC50 (HCT116 cells (KRAS G13D) [1]): ≤ 100 nM; IC50 (H1573 cells (KRAS G12A) [2]): ≤ 100 nM; IC50 (A549 cells (KRAS G12S) [3]): 100 to 1000 nM; IC50 (HT1080 cells (NRAS) [4]): > 1000 nM; IC50 (HCT116 cells (KRAS G13D) [5]): ≤ 100 nM; IC50 (H1573 cells (KRAS G12A) [6]): ≤ 100 nM; IC50 (A549 cells (KRAS G12S) [7]): 100 to 1000 nM; IC50 (HT1080 cells (NRAS) [8]): > 1000 nM
100 to 1000	≤ 100	≤ 100	100 to 1000	> 1000	≤ 100	≤ 100	≤ 100	> 1000	–	–	N#Cc1c(N)sc2c(F)ccc(-c3c(C(F)(F)F)cc4c(N5CCOCC5)nc(OC[C@@]56CCCN5C[C@H](F)C6)nc4c3F)c12 (single isomer, unassigned) [Compound 198]	–	–
≤ 100	≤ 100	≤ 100	≤ 100	> 1000	100 to 1000	≤ 100	≤ 100	> 1000	100 to 1000	100 to 1000	CCN(c1nc(OC[C@@]23CCCN2C[C@H](F)C3)nc2c(F)c(-c3ccc(F)c4sc(N)c(C#N)c34)c(C(F)(F)F)cc12)[C@@H]1CCN(C(C)=O)C1 [Compound 268]	100 to 1000	–
≤ 100	≤ 100	100 to 1000	100 to 1000	> 1000	100 to 1000	100 to 1000	100 to 1000	> 1000	> 1000	100 to 1000	N#Cc1cnn2c1CN(c1nc(OC[C@@]34CCCN3C[C@H](F)C4)nc3c(F)c(-c4ccc(F)c5sc(N)c(C#N)c45)c(C(F)(F)F)cc13)CC2 [Compound 392]	100 to 1000	–
≤ 100	≤ 100	100 to 1000	100 to 1000	> 1000	100 to 1000	100 to 1000	100 to 1000	> 1000	100 to 1000	100 to 1000	CCC(=O)N1C[C@@H](N(CC)c2nc(OC[C@@]34CCCN3C[C@H](F)C4)nc3c(F)c(-c4ccc(F)c5sc(N)c(C#N)c45)c(C(F)(F)F)cc23)C[C@H]1C [Compound 442]	100 to 1000	–
100 to 1000	≤ 100	≤ 100	≤ 100	> 1000	100 to 1000	≤ 100	≤ 100	> 1000	–	–	CC(=O)N1CC[C@@H](N(C)c2nc(OC[C@@]34CCCN3C[C@H](F)C4)nc3c(F)c(-c4ccc(F)c5sc(N)c(C#N)c45)c(Cl)cc23)[C@H]1C [Compound 398]	–	–

SMILES	IC50 (HPAC cells (KRAS G12D); Homo sapiens, HPAC) [nM]	IC50 (HCT116 cells (KRAS G13D) [1]; Homo sapiens, HCT-116) [nM]	IC50 (H1573 cells (KRAS G12A) [2]; Homo sapiens, NCI-H1573) [nM]	IC50 (A549 cells (KRAS G12S) [3]; Homo sapiens) [nM]	IC50 (HT1080 cells (NRAS) [4]; Homo sapiens, HT-1080) [nM]	IC50 (HCT116 cells (KRAS G13D) [5]; Homo sapiens, HCT-116) [nM]	IC50 (H1573 cells (KRAS G12A) [6]; Homo sapiens, NCI-H1573) [nM]	IC50 (A549 cells (KRAS G12S) [7]; Homo sapiens) [nM]	IC50 (HT1080 cells (NRAS) [8]; Homo sapiens, HT-1080) [nM]	IC50 (AsPC-1 cells (KRAS G12D)) [nM]	IC50 (KP-2 cells (KRAS G12R) [9]) [nM]	IC50 (KP-2 cells (KRAS G12R) [10]) [nM]	also measured
N#Cc1c(N)sc2c(F)ccc(-c3c(C(F)(F)F)cc4c(N5CC6CC(C5)O6)nc(OC[C@@]56CCCN5C[C@H](F)C6)nc4c3F)c12 (single isomer, unassigned) [Compound 275]	100 to 1000	≤ 100	≤ 100	≤ 100	> 1000	100 to 1000	≤ 100	≤ 100	> 1000	100 to 1000	100 to 1000	≤ 100	–
